pIC50: −log10 of the molar value.
Assays:
[1] = Antiproliferative activity against human LTEP-a2 cells assessed as inhibition of cell growth incubated for 48 hrs by MTT assay; type: functional, cell-based; conditions: LTEP-A2, 48 h
SK-HEP1 [2] = test: Antiproliferative activity against human SK-HEP1 cells assessed as inhibition of cell growth incubated for 48 hrs in presence of ligustrazine by MTT assay; type: functional, cell-based; conditions: SK-HEP1, 48 h
MDA-MB-231 [3] = test: Antiproliferative activity against human MDA-MB-231 cells assessed as inhibition of cell growth incubated for 48 hrs by MTT assay; type: functional, cell-based; conditions: MDA-MB-231, 48 h
NCI-H1975 [4] = test: Antiproliferative activity against human NCI-H1975 cells assessed as inhibition of cell growth incubated for 48 hrs by MTT assay; type: functional, cell-based; conditions: NCI-H1975, 48 h
A549 [5] = test: cells; conditions: Homo sapiens, A549, 48 h
Description: Antiproliferative activity against human A549 cells assessed as inhibition of cell growth incubated for 48 hrs in presence of ligustrazine by MTT assay

A549 [6] = test: Induction of apoptosis in human A549 cells assessed as viable cells at 2 uM incubated for 48 hrs by Annexin V-FITC and PI staining based flow cytometric analysis (reference value: 93.8%); type: functional; conditions: read-out: Activity
A549 [7] = test: Inhibition of cell migration in human A549 cells assessed as reduction in wound area at 2 uM incubated for 24 hrs by inverted microscopic analysis; type: functional; set-up: scale not given: the % may be the effect or the level left
A549 [8] = test: Induction of apoptosis in human A549 cells assessed as early apoptotic cells at 2 uM incubated for 48 hrs by Annexin V-FITC and PI staining based flow cytometric analysis (reference value: 0.76%); type: functional
[9] = Antitumor activity against mouse Lewis lung carcinoma cell line implanted in C57BL/6J mouse assessed as tumor growth inhibition at 1 mg/kg, ip administered every day for 19 days; type: functional; conditions: 456 h, time 19 day, read-out: TGI
[10] = Antiproliferative activity against human LTEP-a2 cells assessed as inhibition of cell growth incubated for 48 hrs in presence of ligustrazine by MTT assay; type: functional, cell-based; conditions: LTEP-A2, 48 h
SK-HEP1 [11] = test: Antiproliferative activity against human SK-HEP1 cells assessed as inhibition of cell growth incubated for 48 hrs by MTT assay; type: functional, cell-based; conditions: SK-HEP1, 48 h
NCI-H1975 [12] = test: Antiproliferative activity against human NCI-H1975 cells assessed as inhibition of cell growth incubated for 48 hrs in presence of ligustrazine by MTT assay; type: functional, cell-based; conditions: NCI-H1975, 48 h
[13] = Toxicity in C57BL/6J mouse implanted with mouse Lewis lung carcinoma cell line assessed as decrease in body weight at 0.5 to 1 mg/kg, ip administered every day for 19 days; type: organism-based; conditions: in vivo, 456 h, dose 0.5-1 mg/kg, time 19 day
A549 [14] = test: Inhibition of cell invasion in human A549 cells incubated for 12 to 48 hrs by crystal violet staining based microscopic analysis; type: functional; conditions: dose 2-4 µM, time 12-48 hrs
A549 [15] = test: Antiproliferative activity against human A549 cells assessed as inhibition of cell growth incubated for 48 hrs by MTT assay; type: functional, cell-based; conditions: A549, 48 h
A549 [16] = test: Induction of apoptosis in human A549 cells assessed as late apoptotic cells at 2 uM incubated for 48 hrs by Annexin V-FITC and PI staining based flow cytometric analysis (reference value: 0.73%); type: functional
MDA-MB-231 [17] = test: cells; conditions: Homo sapiens, MDA-MB-231, 48 h
Description: Antiproliferative activity against human MDA-MB-231 cells assessed as inhibition of cell growth incubated for 48 hrs in presence of ligustrazine by MTT assay

A549 [18] = test: Induction of apoptosis in human A549 cells assessed as necrotic cells at 2 uM incubated for 48 hrs by Annexin V-FITC and PI staining based flow cytometric analysis (reference value: 4.68%); type: functional
Peroxiredoxin-1 = molecular target: T1, Peroxiredoxin-1 (Homo sapiens, UniProt Q06830); test: Inhibition of PRDX1 (unknown origin) in presence of cofactor A/cofactor B/NADPH incubated for 25 mins; conditions: for pIC50: read-out: IC50
T1 sequence (Q06830 whole entry): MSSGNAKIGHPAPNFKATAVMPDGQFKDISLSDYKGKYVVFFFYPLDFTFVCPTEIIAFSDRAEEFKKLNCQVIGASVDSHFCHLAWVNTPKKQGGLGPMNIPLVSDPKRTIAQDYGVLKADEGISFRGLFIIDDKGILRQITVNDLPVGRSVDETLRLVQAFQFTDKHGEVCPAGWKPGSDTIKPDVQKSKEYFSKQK

A549 [19] = test: Antiproliferative activity against human A549 cells assessed as inhibition of cell growth incubated for 48 hrs in presence of celastrol by MTT assay; type: functional, cell-based; conditions: A549, 48 h
SK-HEP1 [20] = test: Antiproliferative activity against human SK-HEP1 cells assessed as inhibition of cell growth incubated for 48 hrs in presence of celastrol by MTT assay; type: functional, cell-based; conditions: SK-HEP1, 48 h
[21] = Antiproliferative activity against human LTEP-a2 cells assessed as inhibition of cell growth incubated for 48 hrs in presence of celastrol by MTT assay; type: functional, cell-based; conditions: LTEP-A2, 48 h
MDA-MB-231 [22] = test: Antiproliferative activity against human MDA-MB-231 cells assessed as inhibition of cell growth incubated for 48 hrs in presence of celastrol by MTT assay; type: functional, cell-based; conditions: MDA-MB-231, 48 h
NCI-H1975 [23] = test: Antiproliferative activity against human NCI-H1975 cells assessed as inhibition of cell growth incubated for 48 hrs in presence of celastrol by MTT assay; type: functional, cell-based; conditions: NCI-H1975, 48 h

SMILES: CC1=C(O)C(=O)C=C2C1=CC=C1[C@@]2(C)CC[C@@]2(C)[C@@H]3C[C@](C)(C(=O)O)CC[C@]3(C)CC[C@]12C [CELASTROL]
- pIC50 [1]: 4.92
- pIC50 (SK-HEP1 [2]): 5.01
- pIC50 (MDA-MB-231 [3]): 5.31
- pIC50 (NCI-H1975 [4]): 5.22
- pIC50 (A549 [5]): 5.19
- viability at 2 µM (A549 [6]): 85.6%
- Activity (A549 [7]): 50%
- Activity (A549 [8]): 5.21%
- inhibition in vivo at 1 mg/kg [9]: 71%
- pIC50 [10]: 5.02
- pIC50 (SK-HEP1 [11]): 5.00
- pIC50 (NCI-H1975 [12]): 5.25
- Activity [13]: Non-Toxic
- inhibition (A549 [14]): Dose-Dependent Effect
- pIC50 (A549 [15]): 5.03
- Activity (A549 [16]): 5.92%
- pIC50 (MDA-MB-231 [17]): 5.31
- Activity (A549 [18]): 3.28%

SMILES: CC1=C(OC(=O)C2CCOCC2)C(=O)C=C2C1=CC=C1[C@@]2(C)CC[C@@]2(C)[C@@H]3C[C@](C)(C(=O)NCc4nc(C)c(C)nc4C)CC[C@]3(C)CC[C@]12C
- pIC50 (Peroxiredoxin-1): 5.81
- pIC50 (A549 [15]): 5.37

SMILES: CCC(=O)OC1=C(C)C2=CC=C3[C@@](C)(CC[C@@]4(C)[C@@H]5C[C@](C)(C(=O)NCc6nc(C)c(C)nc6C)CC[C@]5(C)CC[C@]34C)C2=CC1=O
- pIC50 (Peroxiredoxin-1): 6.01
- pIC50 (A549 [15]): 5.18

SMILES: CC(=O)OC1=C(C)C2=CC=C3[C@@](C)(CC[C@@]4(C)[C@@H]5C[C@](C)(C(=O)NCc6nc(C)c(C)nc6C)CC[C@]5(C)CC[C@]34C)C2=CC1=O
- pIC50 (Peroxiredoxin-1): 5.83
- pIC50 (A549 [15]): 5.18

SMILES: CC(=O)OC1=C(C)C2=CC=C3[C@@](C)(CC[C@@]4(C)[C@@H]5C[C@](C)(C(=O)OCc6nc(C)c(C)nc6C)CC[C@]5(C)CC[C@]34C)C2=CC1=O
- pIC50 (Peroxiredoxin-1): 6.32
- pIC50 (A549 [15]): 5.28

SMILES: CC1=C(OC(=O)C2CC2)C(=O)C=C2C1=CC=C1[C@@]2(C)CC[C@@]2(C)[C@@H]3C[C@](C)(C(=O)NCc4nc(C)c(C)nc4C)CC[C@]3(C)CC[C@]12C
- pIC50 [1]: 5.13
- pIC50 (MDA-MB-231 [3]): 5.22
- pIC50 (Peroxiredoxin-1): 6.62
- pIC50 (NCI-H1975 [4]): 5.50
- pIC50 (SK-HEP1 [11]): 5.57
- pIC50 (A549 [15]): 5.59

SMILES: CCCC(=O)OC1=C(C)C2=CC=C3[C@@](C)(CC[C@@]4(C)[C@@H]5C[C@](C)(C(=O)NCc6nc(C)c(C)nc6C)CC[C@]5(C)CC[C@]34C)C2=CC1=O
- pIC50 [1]: 5.22
- pIC50 (MDA-MB-231 [3]): 5.44
- pIC50 (Peroxiredoxin-1): 6.55
- pIC50 (NCI-H1975 [4]): 5.83
- pIC50 (SK-HEP1 [11]): 5.56
- pIC50 (A549 [15]): 5.81

SMILES: [O-][n+]1c(CBr)c(CBr)[n+]([O-])c2ccccc21
- pIC50 (Peroxiredoxin-1): 4.83

SMILES: Cc1nc(C)c(C)nc1C [LIGUSTRAZINE]
- pIC50 (A549 [19]): 5.19
- pIC50 (SK-HEP1 [20]): 5.01
- pIC50 [21]: 5.02
- IC50 (Peroxiredoxin-1): Not Active
- pIC50 (MDA-MB-231 [22]): 5.31
- pIC50 (A549 [15]): < 4.70
- pIC50 (NCI-H1975 [23]): 5.25

SMILES: CC1=C(O)C(=O)C=C2C1=CC=C1[C@@]2(C)CC[C@@]2(C)[C@@H]3C[C@](C)(C(=O)OCc4nc(C)c(C)nc4C)CC[C@]3(C)CC[C@]12C
- pIC50 (Peroxiredoxin-1): 5.60
- pIC50 (A549 [15]): 5.59

SMILES: CC1=C(O)C(=O)C=C2C1=CC=C1[C@@]2(C)CC[C@@]2(C)[C@@H]3C[C@](C)(C(=O)NCc4nc(C)c(C)nc4C)CC[C@]3(C)CC[C@]12C
- pIC50 (Peroxiredoxin-1): 6.78
- pIC50 (A549 [15]): 5.47

SMILES: CC1=C(OC(=O)/C=C/c2ccccc2)C(=O)C=C2C1=CC=C1[C@@]2(C)CC[C@@]2(C)[C@@H]3C[C@](C)(C(=O)OCc4nc(C)c(C)nc4C)CC[C@]3(C)CC[C@]12C
- pIC50 [1]: 5.48
- pIC50 (MDA-MB-231 [3]): 5.67
- pIC50 (Peroxiredoxin-1): 6.28
- pIC50 (NCI-H1975 [4]): 5.83
- pIC50 (SK-HEP1 [11]): 5.79
- pIC50 (A549 [15]): 5.57

From ChEMBL document CHEMBL5634079, “Development of novel celastrol-ligustrazine hybrids as potent peroxiredoxin 1 inhibitors against lung cancer” (Eur J Med Chem, 2023)
